Measured values reported in PMC6641291 (ACS Omega, 2018).

What follows are compounds tested against T1, δ^1-pyrroline-5-carboxylate reductase (P5C reductase) (Arabidopsis thaliana, UniProt P54904) (assay: P5C-dependent NADH oxidation, absorbance at […] nm).
T1 sequence (P54904 1-276): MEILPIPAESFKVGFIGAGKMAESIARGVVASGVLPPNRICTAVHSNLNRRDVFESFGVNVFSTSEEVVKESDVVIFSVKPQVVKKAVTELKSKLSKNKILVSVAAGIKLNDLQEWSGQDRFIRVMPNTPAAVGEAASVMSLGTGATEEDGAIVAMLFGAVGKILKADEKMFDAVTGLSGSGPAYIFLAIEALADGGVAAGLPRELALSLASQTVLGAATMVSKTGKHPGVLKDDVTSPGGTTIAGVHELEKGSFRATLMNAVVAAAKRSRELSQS
Format: biochemical

SMILES | IC50 [mM]
O=P(O)(O)[C@@H]1CCCN1 [(R)-1, Pyrrolidin-2-ylphosphonic Acid] | 24 ± 4
O=P(O)(O)[C@@H]1CCCON1 [(R)-6, (R)-(−)-1,2-oxazinan-3-ylphosphonic acid] | 45 ± 19
O=P(O)(O)[C@H]1CCCN1 [(S)-1, Pyrrolidin-2-ylphosphonic Acid] | 21 ± 2
O=C(O)[C@@H]1CCCN1 [proline] | 84 ± 3
